Laboratory results as given in patent US20210187488A1, “A METHOD OF SYNTHESISING A PT(II) COMPLEX; A PT(II) COMPLEX; USE OF SUCH A COMPLEX AS A PHOTOACTIVATABLE CATALYST IN A HYDROSILYLATION REACTION” (JOHNSON MATTHEY PUBLIC LIMITED COMPANY, priority 2017, published 2021).

Experiments:
[1] = ECHA (European Chemicals Agency) website; cited from earlier work
[2] = Qualitative solubility observations; assay type: physicochemical
Protocol: Stirring was continued at room temperature for 2 hours. […] The precipitate was washed with water and diethylether.
An excess of salicylaldehyde (2 mL, 2.28 g, 18.62 mmol) in EtOH (20 mL) was added and the reaction mixture was heated at 73° C. overnight.
Five different samples were studied: • 1. Vinyl-terminated polydimethylsiloxane 100 cSt • 2.

[3] = Catalytic activity: time until gelling of siloxane composition after 60 s UV irradiation or in the dark; conditions: for Gelling time: 60 s UV
Protocol: The product of Example 3 was tested for catalytic activity.
5 mg of the product was dissolved in 1 mL dichloromethane to provide a solution (‘Solution A’).
The following ingredients were added to a UV-grade plastic cuvette: • vinyl terminated polydimethyl siloxane 100 cSt DMS V21 (2g); • (45-55% methylhydrosiloxane)dimethylsiloxane copolymer 10-15 cSt HMS-501 (0.108 mL); • Solution A (25 μL).
The contents of the cuvette were stirred briefly with a spatula to ensure thorough mixing and a 10 mm magnetic flea was added, before sealing with parafilm.
The cuvette was placed in a UV-lamp box. The positioning of samples in the box was kept the same throughout testing (154 mm from ground to top of cuvette; 114 mm between end of housing and front of cuvette).
A 300 W ozone-free Xenon lamp was used (visible to 300 nm). A water-cooled filter removes some of the visible spectrum.
The stirrer speed was set to the 12 o'clock position and the lamp was switched on for 60 seconds only. The time taken from the switching on of the lamp to the stirrer no longer being able to complete a turn was noted as a measure of activity.
Results are provided in the Table below. ‘Irradiated’ indicates samples exposed to the 60 s UV radiation. ‘Dark’ indicates samples left in darkness without any irradiation.
(§1) All other aspects of the test were the same as Example 16. The results reflect gelling time after the 60 s UV irradiation.
The testing was done as in Example 16, except that in the initial step the following four solutions were prepared:
Different amounts of the respective solutions, as shown in the Tables below, were added to the cuvette but all other aspects of the test were the same as Example 16.
as §1

[4] = Catalytic activity of comparative products in gelling of a siloxane polymer
Protocol: The brown solution gave an orange oil which was tested for catalytic activity in gelling of a siloxane polymer.
A 16.13 wt % aqueous solution of Pt(IV) nitrate (2.624 g, 2.17 mmol) was added to deionised water (50 mL) and a mixture of salicylaldehyde (2.45 mL, 2.8 g, 22.8 mmol) and NaHCO3 (0.765 g, 9.12 mmol) in EtOH (15 mL) was then added. The reaction mixture gave off gas and produced an orange precipitate. Stirring was continued at room temperature for 2 hours. The reaction mixture was then filtered to give an orange precipitate and an orange solution. The precipitate was washed with water and diethylether. […] The product was tested for catalytic activity but none was found. […] The major product appeared to be Pt^IV(HCO3)4.

[5] = Solubility in various solvents, Pt content by ICP-AES; assay type: physicochemical; conditions: 10 mg in 1 mL, room temperature, 3 h, filtered
Protocol: The solubility of the product of Example 3 was tested in various solvents.
In each case, 10 mg of the complex was stirred in 1 mL of each solvent at room temperature for three hours. The solvent was then filtered. One hundred fold dilutions of the samples into methoxypropanol were then carried out and Pt content was determined by ICP-AES using a Spectro Ciros Vision ICP-OES. Yttrium was employed as an internal standard at a concentration of 5 ppm.

[6] = Stability in dichloromethane during crystal growth; assay type: physicochemical; conditions: dichloromethane (DCM/hexane crystal growth, one week)
Source text: The following different methods were attempted in order to provide suitable crystals for testing. • 1. Growth in acetone/water medium. […] Growth in DCM/hexane. This formed two distinct layers with slow mixing occurring at the interface. […] Growth in chloroform/hexane. This formed two distinct layers with slow mixing occurring at the interface. Slightly larger crystals were formed, but still too small. It took longer for the product to turn brown. • 4. Growth in chloroform: The product was dissolved in chloroform with heating, and immediately filtered before being stored in the freezer. Needle like crystals were formed • 5. Growth in chloroform/hexane in freezer. Needle like crystals were formed

[7] = Thermogravimetric analysis (thermal stability); assay type: physicochemical; conditions: TGA
Source text: (which is the boiling point for salicylaldehyde). Above this temperature the ligand is lost, leaving behind the platinum metal.

[8] = 25 μL of toluene solution, 1.77 mM
[9] = 50 μL of toluene solution, 1.77 mM
[10] = 75 μL of toluene solution, 1.77 mM
[11] = 200 μL of toluene solution, 1.77 mM
[12] = 360 μL of toluene solution, 1.77 mM

In the case of `CC1=[C-]CC=C1.[CH3-].[CH3-].[CH3-].[Pt+4]` [(MeCp)PtMe3], the Hazard classification [1] is listed as “fatal if swallowed, fatal in contact with skin, very toxic to aquatic life, causes serious eye irritation, may cause an allergic skin reaction, causes skin irritation and may cause respiratory irritation”.

For Pt(sal)2 [Example 1], the “Solubility (note on sample)” value ([2]; 1 mg/mL in acetone) was “saturated solution, prone to some precipitation” and the “Solubility (note on sample)” value ([2]; 1 mg/mL in vinyl-terminated polydimethylsiloxane) was “poor solubility, solution very cloudy and prone to precipitation”.

Compound `CC(=O)/C=C(/C)O.CC(=O)/C=C(/C)O.[Pt]` [Solution C, Pt(acac)2] has a Gelling time ([3]; 25 μL of DCM solution, 14.4 mM) of 1234 s, a Gelling time ([3]; 50 μL of DCM solution, 14.4 mM) of 719 s and a Gelling time ([3]; 75 μL of DCM solution, 14.4 mM) of 506 s. The Gelling time ([3]; 100 μL of DCM solution, 14.4 mM) was 535 s.

In the case of Pt(sal)2 [Example 9], the Solubility ([2]; MeOH (washing)) is reported as “only very slightly soluble”.

In the case of Pt(sal)2 [Solution D], the Gelling time [3, 8] is reported as 1263 s, the Gelling time [3, 9] is reported as 627 s and the Gelling time [3, 10] is reported as 415 s. For the same compound, the Gelling time [3, 11] was 231 s and the Gelling time [3, 12] was 126 s.

In the case of `CC(=O)/C=C(/C)O.CC(=O)/C=C(/C)O.[Pt]` [Solution E, Pt(acac)2], the Gelling time [3, 8] is reported as 3544 s, the Gelling time [3, 9] is reported as 1350 s and the Gelling time [3, 10] is reported as 938 s. It also gave a Gelling time ([3]; 100 μL of toluene solution, 1.77 mM) of 793 s, a Gelling time [3, 11] of 551 s and a Gelling time [3, 12] of 486 s.

With `O=C([O-])O.O=C([O-])O.O=C([O-])O.O=C([O-])O.[Pt+4]` [Comparative Example 6, Pt^IV(HCO3)4] the Catalytic activity [4] was “none”.

For Pt(sal)2 [Example 3], the Pt concentration ([5]; Acetone:MeCN (1:1)) was 698 mg/L, the Pt concentration ([5]; Acetone) was 646 mg/L and the Pt concentration ([5]; Chloroform) was 3260 mg/L. The Pt concentration ([5]; EtOH) was 103 mg/L, the Pt concentration ([5]; IPA) was 43.4 mg/L and the Pt concentration ([5]; MIBK) was 369 mg/L. It also gave a Pt concentration ([5]; MeCN:DMSO (80:20)) of 1220 mg/L, a Pt concentration ([5]; MeCN) of 588 mg/L and a Pt concentration ([5]; Toluene) of 346 mg/L. The Pt concentration ([5]; Water:MeCN (1:1)) was 167 mg/L, the Pt concentration ([5]; Water) was 42.1 mg/L and the Time until gelling ([3]; dark, no irradiation, 25 μL of 5 mg in 1 mL dichloromethane) was 13,500 s. For the same compound, the Time until gelling ([3]; irradiated (60 s UV), 25 μL of 5 mg in 1 mL dichloromethane) was 165 s, the Stability in solvent [6] was “not completely stable” and the “Thermal stability, stable up to” value [7] was “up to 200 °C”.

For Pt(sal)2 [Example 7], the Time until gelling ([3]; after 60 s UV irradiation, 11 mg in 1 mL dichloromethane) was 208 s.
